Reference: US20210378992A1, “METHODS FOR TREATING A SUBTYPE OF SMALL CELL LUNG CANCER” (Auransa Inc., priority 2018, published 2021)

Tests used:
[1] = system: human small cell lung cancer sample LU5243; experiment: In vivo patient derived xenograft (PDX) study, LU5243 (predicted responder); design: species or system mice; details: pentamidine 10 or 20 mg/kg IP QD, FIGS. 1 and 2
Description: 50 mice were enrolled in the study. 25 mice were randomly allocated to each of two human small cell lung cancer tumor models: LU5181 and LU5243. […] However, expression profile of human LU5243, another SCLC tumor sample, successfully matched with the predicted gene expression signature for pentamidine (e.g., as described above, and in Table 1 and Table 2).
Randomization of the 50 mice was performed using the multi-task method in the Study Log software on day 0. Average tumor volume (mm^3) for each group ±SD at randomization was as follows. […]
Tumor cryovials containing tumor cells were thawed and prepared for inoculation into mice. Cells were washed in PBS, counted, and re-suspended in cold PBS at concentrations of 100,000 viable cells/100 μL. […]
Mice were monitored weekly for palpable tumors, or any changes in appearance or behavior. Once tumors were palpable, they were measured twice a week using calipers. Tumor volume was calculated using the following equation (longest diameter×shortest diameter^2)/2.
Stock solution of pentamidine was made in water at 10 mg/mL. Amount needed for dosing for one week was calculated and was diluted with PBS. […]
Body weight was measured twice a week. […]
For all animals, tumors were collected, weighed, weight recorded and snap frozen. […]

[2] = system: biomarker genes of Tables 1, 2 and 3 (INSM1, GADD45G, C1QL1, STAT6, SMAD3, RNF43 and others); experiment: Biomarker gene expression after dosing of pentamidine in human SCLC PDX study; assay type: in vivo, mice; details: SCLC subtype sensitive to pentamidine
Text: A computational model was constructed to identify patient subpopulations of small cell lung cancer, leveraging data from 5 different datasets of treatment-naïve human small cell lung cancer biopsies (Gene Expression Omnibus identifiers GSE30219, GSE43346, GSE50451; George et al. (2015) Nature 524:47-53; and Rudin et al. (2012) Nat. Genet. 44:1111-1116). Pentamidine was a strong match to one SCLC subpopulation identified by the model. Potential biomarker genes for each subpopulation were discovered using another modeling approach. […] Among the 41 genes (see Tables 1, 2 and 3), the following six genes were selected for further study: INSM1, GADD45G, C1QL1, STAT6, SMAD3 and RNF43.
For all animals, tumors were collected, weighed, weight recorded and snap frozen. Blood for plasma isolation was taken from each animal at 4 hours after dosing. All samples collected from this study were stored in −80° C. For Group01-03, any time that an animal has to be taken down prior to normal end of study termination, the animal was dosed and sampled 4 hours after the dose was given. For group04, tumors were collected 4 hours after the third dose was given. Tumors were weighed and snap-frozen.

SMILES: N=C(N)c1ccc(OCCCCCOc2ccc(C(=N)N)cc2)cc1 [Pentamidine, 1,5-Bis(4-amidinophenoxy)pentane]
- efficacy in PDX model (tumor volume) [1]: significant efficacy
- expression of genes in Table 1 (INSM1, GADD45G, C1QL1) upon treatment with pentamidine ([2]; high expression biomarkers): repressed nearly to normal levels
- expression of genes in Table 2 (STAT6, SMAD3, RNF43) upon treatment with pentamidine ([2]; low expression biomarkers): increased nearly to normal levels
